In patent US11426421B2, “Composition for preventing or improving inflammation including extract of seed of new soybean cultivar SCEL-1” (KOREA INSTITUTE OF SCIENCE AND TECHNOLOGY, priority 2018, dated 2022):

Tested on: oxazolone-induced atopic dermatitis in mice
Assay: Oxazolone-induced atopic dermatitis in mice, samples applied to the ear, ear thickness (H&E histology)
Assay type: in vivo, mouse
Conditions: positive control group (Dexa), concentration not given; FIG. 2
Procedure: In a mouse, oxazolone was administered thereto to induce an oxazolone-induced atopic dermatitis. Then, the effect of the extract of the selected cultivar on atopic dermatitis was examined.
In detail, mice (male, 20 g, 8-week-old, Central Lab. Animal Inc.) was divided into a group of 6, and each group was named as a control group, a induction group (Vehicle), a positive control group (Dexa), a soybean SCEL-1 0.1% (w/v)-treated group, a soybean SCEL-1 0.3% (w/v)-treated group, a SCEL-1 1.0% (w/v)-treated group, and a general black soybean (available from Nonghyup of Gangneungkyo-1-dong) 1.0% (w/v)-treated group. Each sample was prepared in the same manner as in Section (1).
To induce atopic dermatitis in mice, 40 μl of 1% oxazolone per ear was applied once a day. After one week and starting from the eighth day, 40 μl of 1% oxazolone per ear was applied on alternate days for three weeks. In addition, starting from the eighth day, in addition to the oxazolone application, samples were also applied twice a day. Immediately after the experiment, a tissue of the ear was immobilized in 10% paraformaldehyde for 24 hours or more, and then, immersed in paraffin to form a block. The block was then fixed, and cut to a thickness of 10 μm by using a microtome that enables cutting to a constant thickness. […]

## C[C@@H]1C[C@H]2[C@@H]3CCC4=CC(=O)C=C[C@]4(C)[C@@]3(F)[C@@H](O)C[C@]2(C)[C@@]1(O)C(=O)CO [dexamethanosone]
  ear thickness of the mouse having oxazolone-induced atopic dermatitis: reduced to a thickness near the normal level
